In publication PMC4642645, “Oxacillin sensitization of methicillin-resistant Staphylococcus aureus and methicillin-resistant Staphylococcus pseudintermedius by antisense peptide nucleic acids in vitro” (BMC Microbiology, 2015):
Where “and” joins values, the source holds several entries; their conditions need not be identical. Equal entries are not always repeated.

Assays:
NCTC 13142 [1] = assay: Oxacillin MIC and sensitization broth growth assay (broth microdilution, CLSI); type: cell-based, Staphylococcus aureus (MRSA); settings: for Oxacillin MIC with anti-mecA PNA treatment: NCTC 13142, 5 μM PNA; for Sensitization to oxacillin in broth microdilution assays: NCTC 13142, PNAs with EJH-L1 or HIV-1 Tat carrier, data not shown
Method: (§1) The MRSA strain NCTC 13142 from Public Health England Culture Collections is a UK epidemic strain type EMRSA-15, SCCmec Type IV, and the MRSP strain HH-1 was isolated from a canine skin infection and is ST71, SCCmecII-III [19]. Bacteria were cultured on Columbia base agar (Oxoid, Basingstoke, UK) supplemented with 5 % horse blood (Oxoid) and 6 μg/ml oxacillin (Sigma Aldrich, UK) at 35 °C for 20 h. Overnight broth cultures were prepared from single bacterial colonies inoculated in 3 ml Mueller Hinton broth (MHB, Oxoid) supplemented with 6 μg/ml oxacillin and incubated at 35 °C for 20 h at 180 rpm on a rotary shaker.
(§2) The MIC of oxacillin was determined by broth microdilution according to CLSI guidelines. Briefly, overnight broth cultures of MRSA and MRSP were standardized to OD625 = 0.08–0.09 (equivalent to 10^8 CFU/ml) in MHB and further diluted 100-fold to obtain 10^6 CFU/ml. The bacterial suspension was then inoculated at 50 μl per well to a final concentration of 5 × 10^5 CFU/ml. Two-fold serial dilutions of oxacillin (2–512 μg/ml) were added to bacterial cultures at 50 μl per well to a final volume of 100 μl per well, and 96 well plates were incubated at 35 °C for 24 h. MICs were visually scored.
(§3) Overnight broth cultures were adjusted to 5 × 10^5 CFU/ml per well of a 96 well plate as described above and used either in a broth growth assay or a viable count assay. The broth growth assay was used as an initial screen of PNA efficacy because it was simple to carry out. […] Anti-mecA PNAs were added at either 2.5 or 5 μM. After incubation at 35 °C for 24 h, the MIC of oxacillin in combination with the PNAs in broth cultures were scored visually as recommended by CLSI guidelines.

HH-1 [2] = assay: as above; type: cell-based, Staphylococcus pseudintermedius (MRSP); settings: for Oxacillin MIC with anti-mecA PNA treatment: HH-1, 2.5 μM PNA; for Sensitization to oxacillin in broth microdilution assays: HH-1, PNAs with EJH-L1 or HIV-1 Tat carrier, data not shown
Method: as §1, §2, §3

NCTC 13142 [3] = assay: Oxacillin sensitization viable count assay (CFU on oxacillin plates); type: cell-based, Staphylococcus aureus (MRSA); settings: for Sensitization to oxacillin (CFU reduction), result in words: NCTC 13142, PNA 2.5, 5, 7.5 μM (Z46: 7.5 μM)
Method: (§4) The viable count assay is more sensitive than the broth assay and was used to assess the effects of PNAs that performed well in the initial screen described above. In the viable count assay, 5 × 10^5 CFU/ml per well of culture was treated either with 2.5, 5 and 7.5 μM of PNA for NCTC 13142, or 1, 2.5 and 5 μM of PNA for HH-1 in MHB at 35 °C for 6 h. […] Agar plates were incubated at 35 °C for 24 h, and dilutions resulting in 30–300 colonies per plate were used to determine the viable count. Experimental repeats were carried out on separate days, and reductions in CFU of treated cultures were normalized to CFU of the untreated control culture on the day. Statistical analysis of CFU reductions was carried out with the paired Student’s t-Test in Microsoft Excel.

HH-1 [4] = assay: as above; type: cell-based, Staphylococcus pseudintermedius (MRSP); settings: for Sensitization to oxacillin (CFU reduction), result in words: HH-1, A73 and scrA 1, 2.5, 5 μM, Z46 0.5, 1, 2.5 μM, 6 h, plated on 16 μg/ml oxacillin, n = 3
Method: as §4

mecA mRNA [5] = assay: mecA mRNA level by RT-qPCR; type: cell-based, Staphylococcus pseudintermedius (MRSP) HH-1; settings: HH-1, 2.5 μM PNA, no oxacillin, normalized to proC and pyk, average, n = 3
Method: (§5) Growth of cultures in a 96 well plate was monitored by reading the optical density at 550 nm every 5 min, after shaking for 5 s in a microplate reader (Spectramax 340PC, […]). Cultures were harvested when the untreated control culture increased in OD550 ≈ 0.1. Cultures with the same PNA treatment but in different wells across the 96 well plate were pooled for total RNA extraction and DNase I treatment (Ribopure™ Bacteria kit, Life Technologies). RNA was checked for gDNA contamination by qPCR using gyrA primers (Additional file 1: Table S1) and SsoFast™ EvaGreen® Supermix (Bio-Rad) before cDNA synthesis using 50 ng RNA and iScript™ Reverse Transcription Supermix (Bio-Rad). Samples of cDNA were diluted 10-fold and 4 μl used in each qPCR reaction. Non-template controls were included for each primer pair in each run, and technical duplicates for each sample were included in each run.
(§6) Primer pairs for qPCR were designed by Primer3 with a Tm of 60 °C and product sizes of 100–200 bp (Additional file 1: Table S1). […] Primer efficiencies were determined using 10-fold serial dilutions of cDNA (10 pg-1 μg). […]
Total RNA and cDNA were prepared as described above. Raw Cq values were analysed in qbase + (Biogazelle, Belgium) with user-defined primer efficiencies (Additional file 1: Table S1) and expression stabilities (M value) of each candidate reference gene fabD, gyrA, proC, pta, pyk, rho, sodA, and tpiA were calculated as the average pairwise variation for each gene with all other tested genes. […] Stepwise exclusion of the gene with the highest M value allowed ranking of the tested genes according to their expression stability, and from this the optimal number of reference genes was calculated. […] Relative mRNA levels were then calculated as induced normalized Cq/uninduced normalized Cq, and analysed with paired Student’s t-Test in Microsoft Excel.

mecA mRNA [6] = assay: mecA mRNA level by RT-qPCR; type: cell-based, Staphylococcus aureus (MRSA) NCTC 13142
Method: as §5, with “Non-template controls were included for each primer pair in each run, and technical duplicates for each sample were included in each run.” left out
as §6
Total RNA and cDNA were prepared as described above. Raw Cq values were analysed in qbase + (Biogazelle, Belgium) with user-defined primer efficiencies (Additional file 1: Table S1) and expression stabilities (M value) of each candidate reference gene fabD, gyrA, proC, pta, pyk, rho, sodA, and tpiA were calculated as the average pairwise variation for each gene with all other tested genes. […]

NCTC 13142 [7] = assay: Growth inhibition assay (OD550 growth curves); type: cell-based, Staphylococcus aureus (MRSA); settings: NCTC 13142, MHB with 6 μg/ml oxacillin, PNA 0–7.5 μM, 35 °C, 6 h, OD550, n = 3
Method: (§7) Anti-ftsZ PNAs were tested for effects on growth. Overnight MHB cultures were adjusted to 5 × 10^5 CFU/ml per well of a 96 well plate in MHB supplemented with 6 μg/ml oxacillin as described above. Anti-ftsZ PNA was added to final concentrations of 0, 1, 2.5, 5, 7.5 μM and incubated in a microplate reader (Spectramax 340PC, Molecular Devices) at 35 °C for 6 h. The optical density of the cultures was monitored at 550 nm with readings every 5 min after shaking for 5 s.

HH-1 [8] = assay: Growth inhibition assay (OD550 growth curves); type: cell-based, Staphylococcus pseudintermedius (MRSP); settings: HH-1, MHB with 6 μg/ml oxacillin, PNA 0–7.5 μM, 35 °C, 6 h, OD550, n = 3
Method: as §7

NCTC 13142 [9] = assay: Light microscopy of Gram stained cells (cell morphology); type: cell-based, Staphylococcus aureus (MRSA); settings: NCTC 13142, 7.5 μM PNA, 6 h at 35 °C, 1000 × magnification
Method: (§8) Bacterial cultures were treated with anti-ftsZ PNA Z46 in broth as described in the viable count assay. After 6 h at 35 °C, cultures were pelleted, washed once in PBS, and re-suspended in 1/10 of original volume of the culture in PBS. Ten microliter aliquots were heat-fixed, Gram stained, and viewed under a light microscope (Olympus BX60) at 1000 × magnification. Images were captured using the Image-Pro Plus 5.0 (MediaCybernetics), and counting of purple and pink cells were carried out using ImageJ 1.44o (National Institute of Health, USA).

HH-1 [10] = assay: as above; type: cell-based, Staphylococcus pseudintermedius (MRSP); settings: HH-1, 2.5 μM PNA, 6 h at 35 °C, 1000 × magnification
Method: as §8

[11] = MHB, 35 °C, 24 h, scored visually, n=2
[12] = 6 h, plated on 16 μg/ml oxacillin, n = 3

Cc1onc(-c2ccccc2)c1C(=O)N[C@@H]1C(=O)N2[C@@H]1SC(C)(C)[C@@H]2C(=O)O [Oxacillin, oxacillin]
Oxacillin MIC (NCTC 13142 [1]; NCTC 13142, 0 μM PNA, MHB, 35 °C, 24 h, scored visually, n=2): 256 µg/mL and 512 µg/mL | MIC (NCTC 13142 [1]; Staphylococcus aureus, NCTC13142, 24 h, NCTC 13142, 0 μM PNA, MHB, 35 °C, 24 h, scored visually, n=2): ≥ 256 µg/mL | Oxacillin MIC (HH-1 [2]; HH-1, 0 μM PNA, MHB, 35 °C, 24 h, scored visually, n=2): 512 µg/mL | MIC (HH-1 [2]; Staphylococcus pseudintermedius, 24 h, HH-1, 0 μM PNA, MHB, 35 °C, scored visually, n=2): ≥ 256 µg/mL

KFFKFFKFFK-O-caatatcctc-CONH2 [A101, anti-mecA PNA (−10 to −1) conjugated to cell-penetrating peptide …]
Oxacillin MIC with anti-mecA PNA treatment (NCTC 13142 [1]; [11]): 512 µg/mL | Oxacillin MIC with anti-mecA PNA treatment (HH-1 [2]; [11]): 256 µg/mL

KFFKFFKFFK-O-cactataatc-CONH2 [scrA]
Sensitization to oxacillin (CFU reduction), result in words (NCTC 13142 [3]; [12]): did not have an effect | Sensitization to oxacillin (CFU reduction), result in words (HH-1 [4]): significant sensitization | Reduction of mecA transcripts (mecA mRNA [5]): did not have a significant effect

KFFKFFKFFK-O-catcaatatc-CONH2 [A73, anti-mecA PNA (−7 to +3) conjugated to cell-penetrating peptide …]
Oxacillin MIC with anti-mecA PNA treatment (NCTC 13142 [1]; [11]): 128 µg/mL | Sensitization of broth cultures to oxacillin (NCTC 13142 [1]; NCTC 13142, 2.5–5 μM PNA, initial screening): 4–8 fold | Oxacillin MIC with anti-mecA PNA treatment (HH-1 [2]; [11]): 64 µg/mL | Sensitization of broth cultures to oxacillin (HH-1 [2]; HH-1, 2.5–5 μM PNA, initial screening): 4–8 fold | MRSA cells killed by oxacillin (NCTC 13142 [3]; 7.5 μM PNA, 6 h at 35 °C, plated on MH agar with 16 μg/ml oxacillin, relative to untreated control): 66% | Sensitization to oxacillin (CFU reduction), result in words (NCTC 13142 [3]; [12]): significantly sensitized | MRSP cells killed by oxacillin (HH-1 [4]; 2.5 μM PNA, 6 h at 35 °C, plated on MH agar with 16 μg/ml oxacillin, relative to untreated control): 92% | Sensitization to oxacillin (CFU reduction), result in words (HH-1 [4]): significantly sensitized | mecA mRNA, result in words (mecA mRNA [6]; MRSA, 7.5 μM PNA, p < 0.05): reduced | Reduction of mecA transcripts (mecA mRNA [6]; NCTC 13142, 5 μM PNA, no oxacillin, normalized to pta and gyrA, average, n = 3): 38% | Reduction of mecA transcripts (mecA mRNA [5]): 40% | Reduction of mecA transcripts (mecA mRNA [5]; listed as Anti-mecA PNA): reduced

KFFKFFKFFK-eg1-AATTACTATA-NH2 [scrZ, scrambled control PNA for anti-ftsZ PNAs conjugated to the (KFF)3K peptide]
CFU reduction of NCTC 13142 (NCTC 13142 [3]; 7.5 μM PNA, 6 h, plated on 16 μg/ml oxacillin, ratio to untreated control, mean, n = 3): 44% | Concentration that inhibited growth (NCTC 13142 [7]): not growth inhibitory | Concentration that inhibited growth (HH-1 [8]): 2.5 µM | Cell morphology after Gram stain (NCTC 13142 [9]): appeared normal | Cell morphology after Gram stain (HH-1 [10]): appeared normal

KFFKFFKFFK-eg1-TTCTAACATT-NH2 [Z19, anti-ftsZ PNA (−1 to +9) conjugated to the (KFF)3K peptide]
Concentration that inhibited growth (NCTC 13142 [7]): ineffective

KFFKFFKFFK-eg1-atcaatatcc-CONH2 [A82, anti-mecA PNA (−8 to +2) conjugated to cell-penetrating peptide …]
Oxacillin MIC with anti-mecA PNA treatment (NCTC 13142 [1]; [11]): 128 µg/mL | Oxacillin MIC with anti-mecA PNA treatment (HH-1 [2]; [11]): 256 µg/mL

KFFKFFKFFK-eg1-ttcatcaata-CONH2 [A55, anti-mecA PNA (−5 to +5) conjugated to cell-penetrating peptide …]
Oxacillin MIC with anti-mecA PNA treatment (NCTC 13142 [1]; [11]): 256 µg/mL | Oxacillin MIC with anti-mecA PNA treatment (HH-1 [2]; [11]): 512 µg/mL

MINWKLRLKNK-O-cactataatc-CONH2 [scrA-EJH, scrambled PNA conjugated to EJH-L1 peptide (…)]
Sensitization to oxacillin in broth microdilution assays (NCTC 13142 [1]): did not have an effect | Sensitization to oxacillin in broth microdilution assays (HH-1 [2]): did not have an effect

MINWKLRLKNK-O-catcaatatc-CONH2 [A73-EJH]
Sensitization to oxacillin in broth microdilution assays (NCTC 13142 [1]): 2 fold | Sensitization to oxacillin in broth microdilution assays (HH-1 [2]): 2 fold

YGRKKRRQRRR-O-cactataatc-CONH2 [scrA-Tat, scrambled PNA conjugated to HIV 1-Tat peptide (…)]
Sensitization to oxacillin in broth microdilution assays (NCTC 13142 [1]): did not have an effect | Sensitization to oxacillin in broth microdilution assays (HH-1 [2]): did not have an effect

YGRKKRRQRRR-O-catcaatatc-CONH2 [A73-Tat]
Sensitization to oxacillin in broth microdilution assays (NCTC 13142 [1]): 2 fold | Sensitization to oxacillin in broth microdilution assays (HH-1 [2]): 2 fold
